{
  "source": "patent US20170016884A1",
  "about": "“A NOVEL, HIGH-THROUGHPUT, NANOTOPOGRAPHIC PLATFORM FOR SCREENING CELL MIGRATORY BEHAVIOR” (THE JOHNS HOPKINS UNIVERSITY, priority 2014, published 2017)",
  "key": {"[1]": {"system": "primary human GB cells", "assay": "cell migration on multi-well nanopatterned platform (time-lapse microscopy)", "format": "cell-based", "conditions": "for fraction of cells maintaining slower speeds (≦15 μm/hr): PDGF-exposed", "description": "(§1) Cells were cultured in the multi-well, nanopatterned device for approximately 48 hours in the course of each experiment. Prior to plating cells, nanoridged substrata were coated with poly-D-lysine (10 μg ml-1) for 15 minutes and mouse laminin (from 10 to 140 μg ml-1) for 1 hour. These topographically patterned cell substrata, caused cells to align with and move along the direction of the nanoridges. Both prior to, and during experiments cells were maintained at 37° C. and 5% CO2 in Dulbecco's Modified Eagle Medium: Nutrient Mixture F-12 containing 2 mM L-glutamine, with added 50 U mL-1 penicillin, […] streptomycin. Where indicated, media contained 10% fetal bovine serum (Invitrogen) or alternatively, Platelet-Derive Growth Factor-AA (PDGF-AA) (LC Laboratories) at specified concentrations.\nCell migration was observed using time-lapse microscopy (Movies S1-S3). To enable long-term observation, the multi-well, nanopatterned device was mounted onto the stage of a motorized inverted microscope (Olympus IX81) equipped with a Photometrics® Cascade® 512B II CCD camera and temperature and gas controlling environmental chamber. Phase contrast cell images were automatically recorded under 10× objective (NA=0.30) using the SlideBook™ 4.1 Software (Intelligent Imaging Innovations, Denver, Colo.) for 10-15 hours at 10 or 20 minute intervals.\nBecause cell-cell contact is known to affect the extent of cell spreading and migration, cells were plated at low density (˜4×10^4 cells mL -1) to allow isolated movements. A custom-made MATLAB® script was used allow manual tracking and measurement of cells frame by frame. Analysis was stopped in the event of cell death, division, collision with non-cellular debris, or movement out of the field of view. Area and spindle shape factor of individual cells was measured in each frame, and averaged over the entire duration of the experiment. The spindle shape factor was defined as the ratio of the maximum cell length (long axis) to the maximum cell width in the direction perpendicular to long axis, regardless of the orientation with respect to nanoridge pattern. Averages of cell populations were calculated from at least 60 cells.\nCells movements were tracked by centroid position or by the approximate center of the cell body. Individual cell trajectories were used to calculate the mean squared displacement (MSD) at each interval. Instantaneous speeds of individual cells were calculated from the MSD and the duration of the image acquisition time interval. Average speeds of individual cells were calculated from the total distanced moved throughout the entire cell trajectory and the total time the cell was tracked. Persistence was obtained as previously described, by calculating the ratio of the shortest distance between starting point and end point, divided by the total distanced moved. Alignment to the nanoridge pattern was calculated by dividing the distance moved parallel to the ridges, by the distance moved perpendicular to the ridges. Averages of cell populations were calculated from at least 60 cells."}, "[2]": {"system": "GB", "conditions": "cited from earlier work"}, "[3]": {"target": "PDGFRα (Homo sapiens, UniProt P16234)", "sequence (P16234 24-1089)": "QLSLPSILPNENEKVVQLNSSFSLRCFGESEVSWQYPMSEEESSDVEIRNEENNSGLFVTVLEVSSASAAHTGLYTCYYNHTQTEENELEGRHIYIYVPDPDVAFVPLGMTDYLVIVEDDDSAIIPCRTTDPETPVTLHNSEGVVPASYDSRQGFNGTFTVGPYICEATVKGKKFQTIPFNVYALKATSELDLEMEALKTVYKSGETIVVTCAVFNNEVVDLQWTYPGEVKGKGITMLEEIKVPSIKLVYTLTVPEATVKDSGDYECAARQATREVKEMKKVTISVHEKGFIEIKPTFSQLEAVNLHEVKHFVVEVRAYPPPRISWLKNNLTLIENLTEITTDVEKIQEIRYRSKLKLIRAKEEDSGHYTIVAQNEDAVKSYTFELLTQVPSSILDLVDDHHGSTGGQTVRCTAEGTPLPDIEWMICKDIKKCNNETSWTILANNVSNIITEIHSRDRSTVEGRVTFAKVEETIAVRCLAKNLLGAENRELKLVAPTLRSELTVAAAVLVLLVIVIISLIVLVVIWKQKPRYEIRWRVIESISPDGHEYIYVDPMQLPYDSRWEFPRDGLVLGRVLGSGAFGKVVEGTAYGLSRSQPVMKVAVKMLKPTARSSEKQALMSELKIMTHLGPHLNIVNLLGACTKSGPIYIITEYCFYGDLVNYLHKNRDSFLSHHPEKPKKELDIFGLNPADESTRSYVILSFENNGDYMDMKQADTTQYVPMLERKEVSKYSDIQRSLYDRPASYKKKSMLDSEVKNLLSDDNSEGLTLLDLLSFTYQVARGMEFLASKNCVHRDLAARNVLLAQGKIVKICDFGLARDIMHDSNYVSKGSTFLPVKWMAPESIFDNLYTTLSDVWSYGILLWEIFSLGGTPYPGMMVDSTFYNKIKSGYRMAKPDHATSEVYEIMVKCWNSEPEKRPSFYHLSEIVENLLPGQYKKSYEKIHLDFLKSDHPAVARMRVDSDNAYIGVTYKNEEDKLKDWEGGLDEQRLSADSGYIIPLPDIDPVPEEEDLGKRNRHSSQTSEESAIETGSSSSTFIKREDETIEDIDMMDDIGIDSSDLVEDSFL", "conditions": "cited from earlier work"}, "[4]": {"system": "Akt", "assay": "Akt phosphorylation via immunoblotting", "format": "cell-based, human", "conditions": "FIG. 10B", "experimental": "Total cellular protein was extracted using NE-PER Nuclear and Cytoplasmic Extraction Reagents kit according to the manufacturer's instructions (Thermo Scientific) containing protease (Roche) and phosphatase inhibitor (Thermo). Protein concentration was determined using the Bradford protein quantification method (Biorad Protein Assay, Biorad). SDS-PAGE was performed with 25 μg total cellular protein per lane using 4-12% gradient Tris glycine gels. The primary antibodies used were as follows: anti PDGFR-alpha (1:200; Santa Cruz); phospho-PDGFR alpha (1:1000; Cell Signaling); Akt (1:1000; Cell Signaling);\nphospho-Akt (1:1000; Cell Signaling)."}, "[5]": {"system": "human GB cells", "assay": "mouse intracranial tumor xenograft of human GB cells with PDGF exposure", "format": "in vivo", "description": "All animal protocols were approved by the Johns Hopkins School of Medicine Animal Care and Use Committee. For intracranial xenografts, SCID immnodeficient mice received 100,000 viable cells in 1 μl of DMEM/F12 serum media without growth factors by stereotactic injection into the right striatum. Cells were cultured in DMEM/F12 serum media with EGF/FGF and PDGF-AA ligand for three weeks before injections were performed. Cell viability was determined by trypan blue dye exclusion. Mice were perfused with 4% paraformaldehyde at the indicated times and the brains were removed for histological analysis."}, "[6]": {"system": "primary human GB cells", "assay": "cell migration on flat (smooth) substrata", "format": "cell-based", "description": "as §1, with “Prior to plating cells, nanoridged substrata were coated with poly-D-lysine (10 μg ml-1) for 15 minutes and mouse laminin (from 10 to 140 μg ml-1) for 1 hour.” left out\nCell migration was observed using time-lapse microscopy (Movies S1-S3). […] Phase contrast cell images were automatically recorded under 10× objective (NA=0.30) using the SlideBook™ 4.1 Software (Intelligent Imaging Innovations, Denver, Colo.) for 10-15 hours at 10 or 20 minute intervals.\nBecause cell-cell contact is known to affect the extent of cell spreading and migration, cells were plated at low density (˜4×10^4 cells mL -1) to allow isolated movements. […] Area and spindle shape factor of individual cells was measured in each frame, and averaged over the entire duration of the experiment. […] Averages of cell populations were calculated from at least 60 cells. […]"}},
  "data": [
    {"compound": "Cc1ccc(NC(=O)c2ccc(CN3CCN(C)CC3)cc2)cc1Nc1nccc(-c2cccnc2)n1", "note": "[Imatinib]", "values": [
      {"measurement": "effect on PDGF-stimulated migration (speed and alignment)", "setting": "[1]; 'responding' sample GB 276, PDGF-stimulated", "result": "attenuation of enhancements in speed and alignment"},
      {"measurement": "GB growth", "setting": "[2]", "result": "inhibit GB growth in vitro and in vivo"},
      {"measurement": "interaction with PDGFRα", "setting": "[3]", "result": "known to interact with PDGFRα"}
    ]},
    {"compound": "PDGF", "values": [
      {"measurement": "increase in migration speed upon PDGF stimulation vs unstimulated cells", "setting": "[1]; 'responding' GB samples, PDGF 40-50 ng/mL", "result": "15-100%"},
      {"measurement": "fraction of cells maintaining slower speeds (≦15 μm/hr)", "setting": "[1]; GB 318 cells", "result": "roughly 70%"},
      {"measurement": "fraction of cells maintaining slower speeds (≦15 μm/hr)", "setting": "[1]; GB 630 cells", "result": "~60", "unit": "%"},
      {"measurement": "sub-population of aggressive cells accounting for the increased average migration speed", "setting": "[1]; in the presence of PDGF", "result": "approximately 20%"},
      {"measurement": "maximal motility relative to control", "setting": "[1]; nanopatterned system, intermediate PDGF concentrations, serum-free medium", "result": "up to 2 fold"},
      {"measurement": "dose dependence of response in migration speed and persistence", "setting": "[1]; nanopatterned system, seven PDGF concentrations", "result": "clear graded dose dependence"},
      {"measurement": "phosphorylation (activation) of downstream effector Akt", "setting": "[4]", "result": "PDGFdependent"},
      {"measurement": "survival of mice", "setting": "[5]; GB 276 neurospheres cultured with PDGF three weeks before intracranial injection, n=4", "result": "significantly reduced survival"},
      {"measurement": "tumor size, invasiveness and shape", "setting": "[5]; continuous PDGF exposure of tumor xenografts via infusion pump, n=2", "result": "larger, more invasion tumors with more eccentric shapes"},
      {"measurement": "migratory response to PDGF exposure", "setting": "[6]", "result": "much more limited responses"}
    ]},
    {"compound": "laminin: surface-immobilized ECM protein used to coat substrata", "values": [
      {"measurement": "response of speed, alignment and persistence to laminin coating concentration", "setting": "[1]; GB 318 cells, nanopatterned substrata, optimum at intermediate laminin values", "result": "biphasic response"},
      {"measurement": "differences in migration at varying laminin densities", "setting": "[6]; GB 318 cells", "result": "did not observe statistically significant differences"}
    ]}
  ]
}
